Patent US20090163413A1, “DENTAL PRODUCTS COMPRISING BONE GROWTH ENHANCING PEPTIDE” (Acologix., Inc., priority 2000, published 2009)
No end group written: not given here.

Test system: calvaria from 4-days-old mice
Assay: Fetal mouse calvarial assay (mouse calvarial organ culture, histomorphometrical analysis of new bone area)
Format: cell-based
Settings: assay terminated at day 7, FGF-1 as positive control
Method: FGF-1 was purchased from Peprotech Inc. (Rocky Hill, N.J.). RGD-1, 2, 3, 4, 5 and 6 (referred to here as D-00001, D-00002, D-00003, D-00004, D-00005 and D-00006) were provided by Dr. Nomizu (Hokkaido University, Japan).
Pregnant ICR mice were purchased from SLC Japan Co. Ltd. (Shizuoka, Japan).
Mouse calvarial organ culture was performed as described in Mundy G et al. Science 286: 1946-1949, 1999 and Traianedes K et al. Endocrinology 139: 3178-3184, 1998. The calvaria from 4-days-old mice were excised and cut in half along the sagittal suture. Each half of the calvaria was placed on a stainless steel grid in a 12-well tissue culture dish (Asahi Glass Techno Corp., Funabashi, Japan). Each well contained 1.5 ml of BGj medium (Sigma, St. Louis, Mo.) supplemented with 0.1% bovine serum albumin (Sigma) and each compound. FGF-1 was used as a positive control as described by Mundy et al. The medium was changed at day 1 and 4, and the assay was terminated at day 7.
Calvaria was fixed with 10% neutral-buffered formalin, decalcified with 4.13% EDTA and embedded in paraffin. […] sections were made and stained with hematoxylin and eosin. New bone area was measured using Image-Pro Plus (Media Cybernetics, Silver Spring, Md.).
The six peptides of Example 1 were tested for their ability to enhance bone growth with the tests being carried out as described above in Example 2.

| Sequence | ability to enhance bone growth (new bone area) |
| --- | --- |
| ERGDNDISPFSGDGQ (ERGDNDISPFSGDGQ-NH2) [D-00004] | best results |
| TDLQERGDNDISPFSGDGQPFKD [D-00006] | best results |
